Patent EP1953237A1, “A method for the production of short chained glycolipids” (ECOVER N.V., priority 2007, dated 2008)
Like-named read-outs stand apart in the source and are kept apart here. One block for each compound: values may come before it.

Key:
Candida bombicola = format: cell-based; conditions: for number of colony forming units: ester 30 g/l in total
Method: A one litre baffled shake flask was filled with 200 ml medium according to Lang and co-workers (2000) and inoculated with Candida bombicola and left to grow at 30°C and 200 rpm. After 48 h 10 g/l Dodecyl glutarate was added. On day 5, 6 and 7 another 7.5 , 5 and 7.5 g/l ester was added. On day 10 the fermentation was stopped. The number of colony forming units was somewhat lower compared to fermentations on rapeseed oil or glucose. […] The sophorolipid yield as gravimetrically determined amounted 26 g/l. The residual ester concentration was 13 g/l. Dodecyl glutarate is a solid which was difficult to dose and tended to agglomerate, thus limiting the availability to Candida and probably causing part of the residual substrate. […] These peaks were identified by RP-HPLC-MS (Waters ZQ) using quadrupole electrospray negative ion detection (see figure 1). […] Both the lactonic and the acid diacetylated form were identified as well as traces of monoacetylated species. [formula]
To verify whether the ester or the glutaric acid which may be released following hydrolysis during the fermentation were toxic, 200 ml cultures were set up in one litre shaking flasks at 200 rpm. After 48 hours glutaric acid was added; 0, 10 or 100 %, the latter corresponding to the maximum amount of glutaric acid after hydrolysis of 30 g/l dodecyl glutarate (which equals the total amount of substrate added for synthesis). Eight days after the initial addition of glutaric acid the fermentation was stopped. […] It is therefore concluded that the toxicity of dodecyl glutarate is due to the product itself, rather than to hydrolysis products.
Taking into account the above results, a new experiment was set up in a Biostat B5 containing 3 litre medium to which 4g/l rapeseed oil was added in order to avoid toxic effects during the growth phase. From 48 hours onwards small portions of dodecyl glutarate, ester T0 in table 3 were added daily, totalling 145.5 gram during 7 days. Dodecyl glutarate has the same apparent chain length as stearic acid. After the last addition on day 8, the fermentation was run for another 48 hour and terminated 240 hours after the start. The fermentor was operated at 800 rpm mixing speed, 30°C and 1 vvm aeration, always assuring far higher oxygen concentrations than the 15% or less described in US6433152. After 140 hours the initial glucose was almost completely consumed and an additional 43 g/l was added. The pH was kept at 3.5 with 5 M NaOH and the oxygen saturation was varied between 70 and 85% during the production phase, rising 10 to 20 hours after each addition, which indicated the substrate was more or less consumed. The number of CFU in the production phase remained at approximately 6.10^9/ml, the dry cell weight at about 15 g/l, both values being considerably lower than typical values for rapeseed oil fermentations with resp. […] After about 200 hours more and more yeast cells changed aspect from the normal round shape to a flattened shape. This forms an indication of the stress the cells were experiencing due to the product formed and or the decreasing glucose concentration. […]
A new T2 batch was produced with increased care to completely remove the solvent. This batch was not toxic, with the number of CFU remaining stable (above 10^9/ml) over time, independent of the substrate concentration.
Shakeflask experiments with decyl heptanoate (ester T10 in table 2) gave similar results, indicating high toxicity for the first ester batch. […] The mass spectrometric analysis after alkaline hydrolysis of sophorolipids obtained from T10 ester, other than the obvious de novo sophorolipids and hydroxy dodecanoic acid is summarized in table 6 below. […] Note that again methyl terminated sophorolipids as well as sophorolipids with surplus glucose units were identified as de novo synthesized products. For both esters the dissolved oxygen concentration never came below 40% and averaged 65% (T2) and 63% (T10). […]

M. furfur = test: Minimal inhibitory concentration, agar dilution with olive oil overlay; format: cell-based; conditions: 48 hours at 37°C, Sabouraud's dextrose agar with olive oil
Method: The yeast M. furfur is one of the natural causes of dandruff formation. Since it is a lipophilic yeast, the in vitro growth must be stimulated by natural oils or other fatty substances when determining minimal inhibitory concentrations (MIC). We used the most common method, which is to overlay Sabouraud's dextrose agar containing cycloheximide (actidione) with olive oil.
A dilution series (1, ½ ¼, 1/8, 1/16..) was prepared. One ml of this dilution was added to 3 petri dishes per concentration and mixed with the warm agar. After cooling a drop of the yeast culture suspension was dropped on the petri dish and left to grow for 48 hours at 37°C.
The MIC was determined for azelaic acid (pa VWR) neutralized with NaOH, azelaic mixture with SL9:0 (from ex.O.1) and calcium purified azelaic mixture with SL9:0. Whereas a 30% azelaic solution was needed for complete inhibition was needed, only 20% of the (SL9-azelaic) mixture of ex.O.1 was needed.

[1] = to clarify 100 ml AD solution of 2.5 wt. % laureth sulphate and 10% NaOH
Method: In this example the amount of hydrotrope needed to clarify a 100 ml AD solution of 2.5 wt. % laureth sulphate and 10% NaOH.

[2] = shake flask, new/improved ester batch, solvent removed
[3] = shake flask, 10 or 100 % of the amount released from 30 g/l dodecyl glutarate, 8 days

- number of CFU (Candida bombicola; shake flask, improved batch, after reduction): 3 x 10^9 CFU/ml
- number of CFU (Candida bombicola; shake flask, improved batch, before reduction): 6,5 x 10^9 CFU/ml
Structure (SMILES): CCCCCCCCCCOC(=O)CCCCCC [decyl heptanoate]
- substrate toxicity (Candida bombicola; shake flask, first ester batch): high toxicity
- substrate toxicity (Candida bombicola; [2]): slightly toxic

- number of CFU (Candida bombicola; shake flask, new batch, stable over time, independent of substrate concentration): above 10^9 /ml
Structure (SMILES): CCCCCCCCCCCCOC(=O)CCCC [dodecyl pentanoate]
- substrate concentration from which toxicity was shown (Candida bombicola; shake flask, first ester batch): ≥ 10 mM
- substrate toxicity (Candida bombicola; shake flask, first ester batch): pronounced substrate toxicity
- substrate toxicity (Candida bombicola; [2]): not toxic

Structure (SMILES): O=C(O)CCCC(=O)O [glutaric acid, reference compound]
- growth in terms of colony forming units (Candida bombicola; [3]): did not inhibit growth
- sophorolipid production by Candida bombicola (Candida bombicola; [3]): nor did it lower the sophorolipid production

- MIC (lowest concentration which completely inhibits growth) (M. furfur): 30%
Structure (SMILES): O=C(O)CCCCCCCC(=O)O [azelaic acid]

- % active matter needed [1]: 26%
Structure (SMILES): CCO [Ethanol]

Structure (SMILES): CCCCCCCCCCCCOC(=O)CCCC(=O)O [dodecyl glutarate, Dodecyl glutarate]
- toxicity (Candida bombicola; Biostat B5 fermentor): moderate toxicity
- number of CFU in the production phase (Candida bombicola; Biostat B5 fermentor, 145.5 gram ester during 7 days): approximately 6.10^9 /ml
- dry cell weight (Candida bombicola; Biostat B5 fermentor, production phase): about 15 g/l
- toxicity effect of the ester (Candida bombicola; shake flask fermentation): moderate toxicity effect
- number of colony forming units (Candida bombicola; shake flask, at the end of the experiment (day 10)): ~1.10^9 /ml
- number of colony forming units (Candida bombicola; shake flask, value before the drop (printed 'approx. 4', x 10^9 implied)): approx. 4 /ml
